Measured values taken from patent US5422349A, “Morpholino-oxazinyl-terminated alkylamino ethynyl alanine amino diol compounds for treatment of hypertension” (G. D. Seale & Co., priority 1992, dated 1995).
Non-standard residues stand in square brackets, D forms with d. Residues, ends and D or L forms follow the SMILES beside them. *: point of attachment. Sta = CC(C)C[C@H](N)[C@@H](O)CC(=O)O; Isovaleryl = CC(C)CC(=O)*

Tests used:
[1] = target: T1, human renin (Homo sapiens, UniProt P00797); assay: Human Renin Inhibition in vitro (angiotensin I produced, by radioimmunoassay); format: biochemical; settings: pH 7.4, 37° C., two hours, human plasma
T1 construct: purchased National Institute for Biological Standards, London
T1 sequence (P00797 67-406): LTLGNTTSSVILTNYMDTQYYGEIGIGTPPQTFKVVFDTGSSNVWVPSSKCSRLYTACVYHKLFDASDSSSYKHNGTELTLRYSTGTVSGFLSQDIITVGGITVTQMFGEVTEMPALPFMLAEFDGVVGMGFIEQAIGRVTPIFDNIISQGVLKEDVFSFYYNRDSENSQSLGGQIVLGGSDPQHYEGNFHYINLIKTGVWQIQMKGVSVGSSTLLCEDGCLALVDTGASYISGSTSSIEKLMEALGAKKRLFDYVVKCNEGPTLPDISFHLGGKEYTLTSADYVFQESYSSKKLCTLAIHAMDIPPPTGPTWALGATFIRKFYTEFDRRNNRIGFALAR
Method: Compounds of Formula I were evaluated as inhibitors of human renin in an in Vitro assay, as follows: This human renin inhibition test has been previously described in detail [Papaioannou et al., Clinical and Experimental Hypertension, A7(9), 1243-1257 (1985)]. Human renin was obtained from the National Institute for Biological Standards, London. An incubation mixture was prepared containing the following components: in a total volume of 0.25 mL: 100 mM Tris-acetate buffer at pH 7.4, 25×10^-6 Goldblatt units of renin, 0.05 mL of plasma from human volunteers taking oral contraceptives, 6.0 mM Na-EDTA, 2.4 mM phenylmethyl sulfonyl fluoride, 1.5 mM 8-hydroxyquinoline, 0.4 mg/mL bovine serum albumin (BSA), and 0.024 mg/mL neomycin sulfate. This mixture was incubated for two hours at 37° C. in the presence or absence of renin inhibitors. The produced angiotensin I was determined by radioimmunoassay (New England Nuclear kit). Test compounds to be assayed were dissolved in DMSO and diluted with 100 mM Tris-acetate buffer at pH 7.4 containing 0.5% BSA to the appropriate concentration. The final concentration of organic solvent in the reaction mixture was less than 1%. Control incubations at 37° C. were used to correct for effects of organic solvent on renin activity.

[2] = tested on: hog renin; settings: after injection of hog renin into nephrectomized rats; cited from earlier work
[3] = tested on: pepsin; settings: cited from earlier work
[4] = tested on: cathepsin D; settings: cited from earlier work
[5] = tested on: renin; settings: cited from earlier work

IC50 [1] | SMILES | blood pressure [2] | inhibitor of pepsin [3] | inhibitor of cathepsin D [4] | inhibitor of renin [5]
1 nM | C#CC[C@H](NC(=O)[C@@H](CC(=O)N(C)CCN1CCOCC1)Cc1ccccc1)C(=O)N[C@@H](CC1CCCCC1)[C@@H](O)[C@@H](O)CC(C)C [Example 1, N^1-[1R*-[[[1S,1R*-(cyclohexylmethyl)-2S*,3R* -dihydroxy-5-methylhexyl]amino]carbonyl]-3-butynyl]-N^4-methyl-N^4-[2-(4-morpholinyl)ethyl]-2S*-(phenylmethyl)butanediamide] | – | – | – | –
– | CC(C)CC(=O)N[C@H](C(=O)N[C@H](C(=O)N[C@@H](CC(C)C)[C@@H](O)CC(=O)N[C@@H](C)C(=O)N[C@@H](CC(C)C)[C@@H](O)CC(=O)O)C(C)C)C(C)C [pepstatin] (Isovaleryl-VV[Sta]A[Sta]-OH) | reduce blood pressure in vivo | inhibitor | inhibitor | inhibitor
